Laboratory results published in patent US20240148821A1, “PHARMACEUTICAL USE OF CYCLIC PEPTIDE COMPOUND” (CHUGAI SEIYAKU KABUSHIKI KAISHA, priority 2021, published 2024).
Bridge positions count the residues as written; N and C are the ends. Square brackets hold non-standard residues; d marks the D form. Peptide text beside a SMILES is read from it. * marks the point of attachment. hPhe(3-Cl-4-CF3) = N[C@@H](CCc1ccc(C(F)(F)F)c(Cl)c1)C(=O)O; hPhe(3-F,4-CF3) = N[C@@H](CCc1ccc(C(F)(F)F)c(F)c1)C(=O)O; hPhe(4-CF3) = N[C@@H](CCc1ccc(C(F)(F)F)cc1)C(=O)O; Pro(cis-4-Ph) = O=C(O)[C@@H]1C[C@H](c2ccccc2)CN1; NMePhe(4-Cl) = CN[C@@H](Cc1ccc(Cl)cc1)C(=O)O; NMePhe(4-Me) = CN[C@@H](Cc1ccc(C)cc1)C(=O)O; NMeMet(O2) = CN[C@@H](CCS(C)(=O)=O)C(=O)O; NMeGly(cPent) = CN[C@H](C(=O)O)C1CCCC1; Phe(2-OMe) = COc1ccccc1C[C@H](N)C(=O)O; Phe(3-I) = N[C@@H](Cc1cccc(I)c1)C(=O)O; NMeCha = CN[C@@H](CC1CCCCC1)C(=O)O; NMeChg = CN[C@H](C(=O)O)C1CCCCC1; NMeF = CN[C@@H](Cc1ccccc1)C(=O)O; NMeT = CN[C@H](C(=O)O)[C@@H](C)O; NMeD = CN[C@@H](CC(=O)O)C(=O)O; NMeL = CN[C@@H](CC(C)C)C(=O)O; NMeV = CN[C@H](C(=O)O)C(C)C; d(β3hA) = C[C@@H](N)CC(=O)O; Pip = O=C(O)[C@@H]1CCCCN1; NMeA = CN[C@@H](C)C(=O)O; NMeAib = CNC(C)(C)C(=O)O; Piperidide = C1CCN(*)CC1; dNMeA = CN[C@H](C)C(=O)O; Ac5c = NC1(C(=O)O)CCCC1; Aze = O=C(O)[C@@H]1CCN1; Ac3c = NC1(C(=O)O)CC1; Sar = CNCC(=O)O

test system: Human pancreatic cancer cell line AsPC-1 (G12D mutation Kras); test: AsPC-1 cell growth inhibition (AsPC-1 CGI); assay type: cell-based; details: read-out: AsPC-1 cell growth inhibition, 50% growth inhibitory concentration (IC50 value); 96 hours, CellTiter-Glo, values classified in ranges
Description: Test compounds were serially dilated with dimethyl sulfoxide, and 200 nL was then dispensed to a U-bottom 96-well plate using Labcyte Echo. […] The cell suspension was dispensed to a. plate containing a test compound at 100 μL per well and incubated at 37° C. in a 5% carbon dioxide gas incubator. 96 hours later, 80 μL of CellTiter-Glo (Promega) was added to each well and fluorescence was measured.

Question: How did the IC50 turn out when `CC[C@H](C)[C@@H]1NC(=O)[C@H](CC(C)C)N(C)C(=O)C[C@@H](C(=O)N2CCCCC2)N(C)C(=O)[C@H](C2CCCCC2)N(C)C(=O)C2(CCCC2)NC(=O)[C@@H]2CCCN2C(=O)[C@H](CCc2ccc(C(F)(F)F)c(Cl)c2)NC(=O)CN(C)C(=O)[C@H](CCS(C)(=O)=O)N(C)C(=O)CN(C)C(=O)CN(C)C1=O` [Compound 1094] ([NMeL]I[Sar][Sar][NMeMet(O2)][Sar][hPhe(3-Cl-4-CF3)]P[Ac5c][NMeChg][NMeD]-Piperidide; lactam N-11) was run?
Answer: Its IC50 is over 0.5 µM.

Question: Which IC50 does the source give for `CC[C@H](C)[C@@H]1NC(=O)[C@H](CC(C)C)N(C)C(=O)C[C@@H](C(=O)N2CCCCC2)N(C)C(=O)[C@H](C2CCCCC2)N(C)C(=O)C2(CCCC2)NC(=O)[C@@H]2C[C@H](c3ccccc3)CN2C(=O)[C@H](CCc2ccc(C(F)(F)F)c(Cl)c2)NC(=O)CN(C)C(=O)[C@H](CC2CCCCC2)N(C)C(=O)[C@@H]2CCCN2C(=O)CN(C)C1=O` [Compound 1096] ([NMeL]I[Sar]P[NMeCha][Sar][hPhe(3-Cl-4-CF3)][Pro(cis-4-Ph)][Ac5c][NMeChg][NMeD]-Piperidide; lactam N-11) here?
Answer: The IC50 was over 0.5 µM.

Question: How did the IC50 turn out when `CC[C@H](C)[C@@H]1NC(=O)[C@H](CC(C)C)N(C)C(=O)C[C@@H](C(=O)N2CCCCC2)N(C)C(=O)[C@H](C2CCCC2)N(C)C(=O)C2(CCCC2)NC(=O)[C@@H]2CCCN2C(=O)[C@H](CCc2ccc(C(F)(F)F)c(F)c2)NC(=O)CN(C)C(=O)[C@H](C2CCCC2)N(C)C(=O)[C@@H]2CCN2C(=O)[C@H](C)N(C)C1=O` [Compound 1099] ([NMeL]I[NMeA][Aze][NMeGly(cPent)][Sar][hPhe(3-F,4-CF3)]P[Ac5c][NMeGly(cPent)][NMeD]-Piperidide; lactam N-11) was run?
Answer: The IC50 was at most 0.02 µM.

Question: For `CC[C@H](C)[C@@H]1NC(=O)[C@H](CC(C)C)N(C)C(=O)C[C@@H](C(=O)N2CCCCC2)N(C)C(=O)[C@H](CC(C)C)NC(=O)C(C)(C)N(C)C(=O)[C@H](Cc2ccccc2OC)NC(=O)[C@H](Cc2cccc(I)c2)NC(=O)CN(C)C(=O)[C@H](Cc2ccc(C)cc2)N(C)C(=O)CN(C)C(=O)CN(C)C1=O` [Compound 1100] ([NMeL]I[Sar][Sar][NMePhe(4-Me)][Sar][Phe(3-I)][Phe(2-OMe)][NMeAib]L[NMeD]-Piperidide; lactam N-11), which IC50 is on record?
Answer: Its IC50 is over 0.5 µM.

Question: For `CC[C@H](C)[C@@H]1NC(=O)[C@H](CC(C)C)N(C)C(=O)C[C@@H](C(=O)N2CCCCC2)N(C)C(=O)[C@H]([C@@H](C)OC)N(C)C(=O)C2(CCCC2)NC(=O)[C@@H]2CCCN2C(=O)[C@H](CCc2ccc(C(F)(F)F)c(Cl)c2)NC(=O)CN(C)C(=O)[C@H](CC2CCCCC2)N(C)C(=O)CN(C)C(=O)CN(C)C1=O` [Compound 1101] ([NMeL]I[Sar][Sar][NMeCha][Sar][hPhe(3-Cl-4-CF3)]P[Ac5c][NMeT](Me)[NMeD]-Piperidide; lactam N-11), which IC50 is on record?
Answer: The IC50 was over 0.5 µM.

Question: `CC[C@H](C)[C@@H]1NC(=O)[C@H](C)N(C)C(=O)C[C@@H](C(=O)N2CCCCC2)N(C)C(=O)[C@H](C(C)C)N(C)C(=O)C2(CCCC2)NC(=O)[C@@H]2CCCN2C(=O)[C@H](CCc2ccc(C(F)(F)F)c(Cl)c2)NC(=O)[C@@H](C)N(C)C(=O)[C@H](CC2CCCCC2)N(C)C(=O)[C@@H]2CCN2C(=O)[C@H](C)N(C)C1=O` [Compound 1103] ([NMeA]I[NMeA][Aze][NMeCha][dNMeA][hPhe(3-Cl-4-CF3)]P[Ac5c][NMeV][NMeD]-Piperidide; lactam N-11) was tested. Which IC50 did it give?
Answer: Its IC50 is over 0.5 µM.

Question: `CC[C@H](C)[C@@H]1NC(=O)[C@H](CC(C)C)N(C)C(=O)C[C@@H](C(=O)N2CCCCC2)N(C)C(=O)[C@H](C(C)C)NC(=O)C2(CCCC2)NC(=O)[C@@H]2CCCN2C(=O)[C@H](CCc2ccc(C(F)(F)F)c(Cl)c2)NC(=O)CN(C)C(=O)[C@H](CC2CCCCC2)N(C)C(=O)[C@@H]2CCN2C(=O)[C@H](C)N(C)C1=O` [Compound 1106] ([NMeL]I[NMeA][Aze][NMeCha][Sar][hPhe(3-Cl-4-CF3)]P[Ac5c]V[NMeD]-Piperidide; lactam N-11) was tested. Which IC50 did it give?
Answer: Its IC50 is over 0.5 µM.

Question: How did the IC50 turn out when `CC[C@H](C)[C@@H]1NC(=O)[C@@H]2CCCCN2C(=O)C[C@@H](C)NC(=O)[C@H](C(C)C)N(C)C(=O)[C@H](Cc2ccccc2)N(C)C(=O)[C@H](CC(C)C)N(C)C(=O)[C@H](CCc2ccc(C(F)(F)F)cc2)NC(=O)CN(C)C(=O)[C@H](Cc2ccc(Cl)cc2)N(C)C(=O)CN(C)C(=O)CN(C)C1=O` [Compound 1110] (cyclo(I[Sar][Sar][NMePhe(4-Cl)][Sar][hPhe(4-CF3)][NMeL][NMeF][NMeV][d(β3hA)][Pip])) was run?
Answer: The IC50 was over 0.5 µM.

Question: Which IC50 does the source give for `CC[C@H](C)[C@@H]1NC(=O)[C@H](CC(C)C)N(C)C(=O)C[C@@H](C)NC(=O)[C@H](C(C)C)N(C)C(=O)C2(CC2)NC(=O)[C@@H]2CCCN2C(=O)[C@H](CCc2ccc(C(F)(F)F)c(Cl)c2)NC(=O)CN(C)C(=O)[C@H](CC2CCCCC2)N(C)C(=O)CN(C)C(=O)CN(C)C1=O` [Compound 1111] (cyclo([Ac3c][NMeV][d(β3hA)][NMeL]I[Sar][Sar][NMeCha][Sar][hPhe(3-Cl-4-CF3)]P)) here?
Answer: The IC50 was over 0.5 µM.
